In ChEMBL document CHEMBL1201862, “PubChem BioAssay data set” (2004):
The source made the active and inactive calls.

What was measured:
[1] = target: DNA dC->dU-editing enzyme APOBEC-3G (Homo sapiens, UniProt Q9HC16); experiment: inhibition of APOBEC3G ssDNA deamination – biochemical, fluorescence, single-stranded DNA substrate, SAR follow-up (AID 602136); format: functional; details: read-out: IC50_Mean
[2] = target: DNA dC->dU-editing enzyme APOBEC-3A (Homo sapiens, UniProt P31941); experiment: SAR analysis of small molecule inhibitors of APOBEC3A DNA Deaminase via a fluorescence-based single-stranded DNA deaminase assay.; format: functional; details: read-out: IC50_Mean
Sequence of DNA dC->dU-editing enzyme APOBEC-3A (P31941 whole entry): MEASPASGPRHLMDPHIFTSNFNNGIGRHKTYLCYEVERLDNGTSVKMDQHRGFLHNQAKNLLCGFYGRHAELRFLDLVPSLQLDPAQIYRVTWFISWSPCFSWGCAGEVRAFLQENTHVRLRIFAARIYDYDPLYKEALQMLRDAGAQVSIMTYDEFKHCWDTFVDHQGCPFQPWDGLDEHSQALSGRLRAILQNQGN

[3] = target: cAMP-dependent protein kinase catalytic subunit alpha (Homo sapiens, UniProt P17612); format: functional
[4] = target: Tyrosine-protein kinase JAK2 (Homo sapiens, UniProt O60674); format: functional;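 note: JAK2 tested as one member of a kinase panel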
[5] = target: Cyclin-dependent kinase 9 (Homo sapiens, UniProt P50750); format: functional;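 note: value from the CDK9 entry of a kinome-spanning kinase panel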
[6] = target: Casein kinase I isoform alpha (Homo sapiens, UniProt P48729); format: functional
[7] = target: Vascular endothelial growth factor receptor 1 (Homo sapiens, UniProt P17948); format: functional;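 note: measured within a kinome-wide profiling panel, FLT1 as the panel member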
Sequence of Vascular endothelial growth factor receptor 1 (P17948 whole entry): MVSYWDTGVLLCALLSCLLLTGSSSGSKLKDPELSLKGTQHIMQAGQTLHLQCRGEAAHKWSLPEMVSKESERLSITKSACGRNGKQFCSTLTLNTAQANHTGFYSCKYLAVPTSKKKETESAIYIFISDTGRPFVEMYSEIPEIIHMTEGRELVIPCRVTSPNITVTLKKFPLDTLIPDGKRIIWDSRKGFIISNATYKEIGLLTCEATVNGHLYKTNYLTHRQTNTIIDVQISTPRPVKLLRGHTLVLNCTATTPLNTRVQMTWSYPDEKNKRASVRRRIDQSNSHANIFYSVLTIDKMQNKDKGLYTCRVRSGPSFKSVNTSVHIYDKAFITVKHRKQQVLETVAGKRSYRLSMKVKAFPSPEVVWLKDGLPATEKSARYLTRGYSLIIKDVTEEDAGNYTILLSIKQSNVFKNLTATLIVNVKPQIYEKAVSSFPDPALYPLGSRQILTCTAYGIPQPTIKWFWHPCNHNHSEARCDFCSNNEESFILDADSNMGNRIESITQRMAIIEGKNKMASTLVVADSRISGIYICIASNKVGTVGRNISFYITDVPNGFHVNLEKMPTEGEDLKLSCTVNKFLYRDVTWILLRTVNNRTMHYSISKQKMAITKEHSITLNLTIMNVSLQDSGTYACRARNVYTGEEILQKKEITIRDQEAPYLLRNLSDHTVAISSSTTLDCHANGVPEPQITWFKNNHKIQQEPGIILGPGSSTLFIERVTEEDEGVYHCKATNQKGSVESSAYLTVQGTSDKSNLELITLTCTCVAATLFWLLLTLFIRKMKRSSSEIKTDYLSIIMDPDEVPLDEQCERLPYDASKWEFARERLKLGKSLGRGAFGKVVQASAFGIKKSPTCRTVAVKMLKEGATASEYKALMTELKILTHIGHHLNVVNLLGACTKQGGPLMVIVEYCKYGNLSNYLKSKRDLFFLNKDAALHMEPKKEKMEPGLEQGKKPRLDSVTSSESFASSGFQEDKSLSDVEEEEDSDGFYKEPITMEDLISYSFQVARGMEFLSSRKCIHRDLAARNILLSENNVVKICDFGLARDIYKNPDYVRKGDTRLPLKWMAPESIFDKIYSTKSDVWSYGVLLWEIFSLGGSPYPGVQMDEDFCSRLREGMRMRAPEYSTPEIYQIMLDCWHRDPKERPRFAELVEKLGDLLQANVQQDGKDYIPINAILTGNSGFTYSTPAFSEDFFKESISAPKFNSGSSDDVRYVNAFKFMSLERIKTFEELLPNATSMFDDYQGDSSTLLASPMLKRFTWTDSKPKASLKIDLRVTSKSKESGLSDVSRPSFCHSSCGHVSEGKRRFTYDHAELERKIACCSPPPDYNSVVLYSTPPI

[8] = target: cAMP-dependent protein kinase catalytic subunit PRKX (Homo sapiens, UniProt P51817); format: functional
[9] = target: Dual specificity protein kinase CLK2 (Homo sapiens, UniProt P49760); format: functional
[10] = target: Serine/threonine-protein kinase D3 (Homo sapiens, UniProt O94806); format: functional;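 note: determined within a kinase panel screen, with PRKCN as the panel member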
[11] = target: Platelet-derived growth factor receptor beta (Homo sapiens, UniProt P09619); format: functional;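 note: value comes from a kinome panel, with PDGFRB tested as one panel member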
[12] = target: Glycogen synthase kinase-3 beta (Homo sapiens, UniProt P49841); format: functional;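 note: value comes from a broad kinome profiling panel, with GSK3B as the panel member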
[13] = target: Serine/threonine-protein kinase TAO1 (Homo sapiens, UniProt Q7L7X3); format: functional
[14] = target: Glycogen synthase kinase-3 alpha (Homo sapiens, UniProt P49840); format: functional;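 note: GSK3A result taken from a broad kinome-wide kinase panel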
Sequence of Glycogen synthase kinase-3 alpha (P49840 whole entry): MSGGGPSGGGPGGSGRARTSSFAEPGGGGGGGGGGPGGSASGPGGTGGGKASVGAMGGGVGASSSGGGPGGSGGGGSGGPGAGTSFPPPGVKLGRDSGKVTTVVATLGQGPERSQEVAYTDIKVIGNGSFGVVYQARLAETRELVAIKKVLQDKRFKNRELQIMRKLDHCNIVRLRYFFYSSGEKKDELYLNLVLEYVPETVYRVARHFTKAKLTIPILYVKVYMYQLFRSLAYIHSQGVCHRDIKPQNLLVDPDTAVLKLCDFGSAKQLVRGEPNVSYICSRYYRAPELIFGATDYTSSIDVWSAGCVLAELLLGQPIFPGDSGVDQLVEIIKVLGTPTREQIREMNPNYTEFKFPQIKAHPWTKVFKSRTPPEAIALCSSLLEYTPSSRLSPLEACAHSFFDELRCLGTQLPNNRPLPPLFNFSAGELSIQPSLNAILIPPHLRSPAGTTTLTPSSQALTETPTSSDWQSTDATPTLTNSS

[15] = target: Cyclin-dependent kinase 5 (Homo sapiens, UniProt Q00535); format: functional;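 note: CDK5 measured as one member of a kinase profiling panel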
[16] = target: Dual specificity tyrosine-phosphorylation-regulated kinase 1B (Homo sapiens, UniProt Q9Y463); experiment: Navigating the Kinome. Panel member name: DYRK1B; format: functional
Sequence of Dual specificity tyrosine-phosphorylation-regulated kinase 1B (Q9Y463 whole entry): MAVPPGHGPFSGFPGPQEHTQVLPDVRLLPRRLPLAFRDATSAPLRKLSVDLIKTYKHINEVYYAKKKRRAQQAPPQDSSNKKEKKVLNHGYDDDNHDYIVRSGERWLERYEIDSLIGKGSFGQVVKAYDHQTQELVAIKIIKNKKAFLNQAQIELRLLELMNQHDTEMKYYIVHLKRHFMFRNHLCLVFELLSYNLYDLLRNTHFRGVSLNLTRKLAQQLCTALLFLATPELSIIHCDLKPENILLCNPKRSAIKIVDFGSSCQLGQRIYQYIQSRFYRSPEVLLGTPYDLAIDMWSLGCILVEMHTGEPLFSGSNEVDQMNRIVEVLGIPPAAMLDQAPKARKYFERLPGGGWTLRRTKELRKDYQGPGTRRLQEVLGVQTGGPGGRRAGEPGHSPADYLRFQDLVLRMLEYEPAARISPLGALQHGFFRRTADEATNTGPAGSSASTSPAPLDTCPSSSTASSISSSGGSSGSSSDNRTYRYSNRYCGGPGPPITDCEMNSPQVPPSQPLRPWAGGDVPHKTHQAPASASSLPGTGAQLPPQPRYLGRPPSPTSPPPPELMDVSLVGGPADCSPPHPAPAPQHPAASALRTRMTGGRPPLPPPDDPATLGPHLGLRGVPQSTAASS

[17] = target: Fibroblast growth factor receptor 1 (Homo sapiens, UniProt P11362); format: functional
[18] = target: Death-associated protein kinase 3 (Homo sapiens, UniProt O43293); format: functional;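 note: measured as one member of a kinome-wide profiling panel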
Sequence of Death-associated protein kinase 3 (O43293 whole entry): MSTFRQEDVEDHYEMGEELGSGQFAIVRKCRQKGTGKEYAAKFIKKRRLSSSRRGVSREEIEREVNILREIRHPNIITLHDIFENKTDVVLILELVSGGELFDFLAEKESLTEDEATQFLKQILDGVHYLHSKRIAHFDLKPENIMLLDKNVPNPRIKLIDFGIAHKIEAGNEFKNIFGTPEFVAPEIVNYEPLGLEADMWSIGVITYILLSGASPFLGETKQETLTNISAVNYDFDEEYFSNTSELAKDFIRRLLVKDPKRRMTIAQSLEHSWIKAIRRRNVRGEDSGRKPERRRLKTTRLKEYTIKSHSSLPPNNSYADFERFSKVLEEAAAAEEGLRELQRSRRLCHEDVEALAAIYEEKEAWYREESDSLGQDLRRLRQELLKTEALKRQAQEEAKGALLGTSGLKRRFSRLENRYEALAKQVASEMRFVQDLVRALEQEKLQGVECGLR

[19] = target: Leukocyte tyrosine kinase receptor (Homo sapiens, UniProt P29376); experiment: Navigating the Kinome. Panel member name: LTK; format: functional
[20] = target: Mitogen-activated protein kinase kinase kinase kinase 2 (Homo sapiens, UniProt Q12851); format: functional;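 note: measured as one member of a kinome-wide kinase panel, with MAP4K2 as the panel entry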
[21] = target: Serine/threonine-protein kinase PAK 4 (Homo sapiens, UniProt O96013); format: functional;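 note: value obtained within a kinome profiling panel in which PAK4 was one of the panel members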
[22] = target: Macrophage colony-stimulating factor 1 receptor (Homo sapiens, UniProt P07333); format: functional;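 note: value comes from the Navigating the Kinome screening panel, CSF1R member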
[23] = target: Leucine-rich repeat serine/threonine-protein kinase 2 (Homo sapiens, UniProt Q5S007); format: functional;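 note: value from a broad kinome-wide panel profiling study in which LRRK2 was one of the kinases tested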
[24] = target: Cyclin-dependent kinase 7 (Homo sapiens, UniProt P50613); format: functional;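 note: value comes from a kinome-wide kinase profiling panel in which CDK7 is one member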
[25] = target: Platelet-derived growth factor receptor alpha (Homo sapiens, UniProt P16234); experiment: Navigating the Kinome. Panel member name: PDGFRA; format: functional
[26] = target: Serine/threonine-protein kinase TBK1 (Homo sapiens, UniProt Q9UHD2); experiment: Navigating the Kinome. Panel member name: TBK1; format: functional
[27] = target: Inhibitor of nuclear factor kappa-B kinase subunit epsilon (Homo sapiens, UniProt Q14164); experiment: Navigating the Kinome. Panel member name: IKBKE; format: functional
[28] = target: Vascular endothelial growth factor receptor 2 (Homo sapiens, UniProt P35968); format: functional
Aurora kinase A = Aurora kinase A (Homo sapiens, UniProt O14965); format: functional;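 note: value from the Navigating the Kinome kinase panel profiling, panel entry STK6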
[29] = target: Mitogen-activated protein kinase kinase kinase kinase 4 (Homo sapiens, UniProt O95819); format: functional
[30] = target: Dual specificity tyrosine-phosphorylation-regulated kinase 1A (Homo sapiens, UniProt Q13627); format: functional;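 note: measured against DYRK1A as one member of a broad kinome profiling panel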
[31] = target: Proto-oncogene tyrosine-protein kinase receptor Ret (Homo sapiens, UniProt P07949); format: functional;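 note: measured within a kinome-wide profiling panel, RET as the panel member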
[32] = target: Dual specificity protein kinase CLK4 (Homo sapiens, UniProt Q9HAZ1); format: functional
Sequence of Dual specificity protein kinase CLK4 (Q9HAZ1 whole entry): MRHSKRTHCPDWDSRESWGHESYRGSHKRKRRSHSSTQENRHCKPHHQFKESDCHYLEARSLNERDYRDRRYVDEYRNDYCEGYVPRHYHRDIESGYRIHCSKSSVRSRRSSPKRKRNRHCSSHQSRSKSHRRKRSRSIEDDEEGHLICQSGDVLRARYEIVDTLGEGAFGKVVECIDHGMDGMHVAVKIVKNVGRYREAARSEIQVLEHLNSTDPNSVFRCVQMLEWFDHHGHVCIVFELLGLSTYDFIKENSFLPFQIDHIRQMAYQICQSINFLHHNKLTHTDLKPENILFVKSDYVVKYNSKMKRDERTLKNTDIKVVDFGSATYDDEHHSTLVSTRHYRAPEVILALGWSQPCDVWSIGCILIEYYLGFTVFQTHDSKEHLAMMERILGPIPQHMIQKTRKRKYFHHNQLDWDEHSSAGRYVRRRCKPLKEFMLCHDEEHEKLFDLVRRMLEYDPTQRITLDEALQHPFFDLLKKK

[33] = target: Tyrosine-protein kinase receptor TYRO3 (Homo sapiens, UniProt Q06418); format: functional;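 note: TYRO3 value obtained as one member of a kinome-wide profiling panel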
Sequence of Tyrosine-protein kinase receptor TYRO3 (Q06418 whole entry): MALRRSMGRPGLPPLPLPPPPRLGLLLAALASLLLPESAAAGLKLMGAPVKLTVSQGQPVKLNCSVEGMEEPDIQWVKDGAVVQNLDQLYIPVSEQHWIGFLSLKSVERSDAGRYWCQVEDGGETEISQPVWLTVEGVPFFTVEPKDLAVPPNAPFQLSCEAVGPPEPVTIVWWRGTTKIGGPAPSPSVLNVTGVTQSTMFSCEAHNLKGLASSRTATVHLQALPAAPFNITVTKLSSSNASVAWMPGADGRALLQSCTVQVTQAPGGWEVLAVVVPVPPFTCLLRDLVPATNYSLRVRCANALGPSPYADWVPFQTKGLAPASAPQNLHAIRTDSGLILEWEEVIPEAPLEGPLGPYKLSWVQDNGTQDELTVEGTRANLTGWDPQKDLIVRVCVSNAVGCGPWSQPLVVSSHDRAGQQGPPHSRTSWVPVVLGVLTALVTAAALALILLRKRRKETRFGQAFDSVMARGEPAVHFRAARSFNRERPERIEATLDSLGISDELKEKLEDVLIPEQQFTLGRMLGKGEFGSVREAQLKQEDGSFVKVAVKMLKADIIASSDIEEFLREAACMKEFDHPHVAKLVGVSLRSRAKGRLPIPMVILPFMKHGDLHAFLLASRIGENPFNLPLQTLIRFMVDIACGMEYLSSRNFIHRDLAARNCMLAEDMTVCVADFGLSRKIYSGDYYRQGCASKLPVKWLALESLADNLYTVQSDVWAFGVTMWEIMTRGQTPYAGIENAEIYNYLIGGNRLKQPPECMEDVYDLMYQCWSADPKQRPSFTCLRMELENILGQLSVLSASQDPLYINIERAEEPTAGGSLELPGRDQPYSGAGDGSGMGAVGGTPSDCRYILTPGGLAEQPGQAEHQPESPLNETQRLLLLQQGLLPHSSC

[34] = cAMP pathway inhibition in counterscreen cell line – TR-FRET cAMP detection, counter-screen for MC4R biased antagonist project, dose response (AID 602305); format: functional, cell-based;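 note: U2OS cells stimulated with forskolin near its EC80 as the cAMP inducer; potency is for inhibition of forskolin-stimulated cAMP signaling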
CHO = CHO cell viability loss, potency – luminescence, cytotoxicity control for TLR9-MyD88 binding inhibitor project, dose response (AID 588339); format: functional, cell-based, hamster; details: Cricetulus griseus;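 note: CHO cells stably coexpressing TLR9 and MyD88 fusions from primary screen; compound exposure lasted 48 hours before viability readout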
[35] = target: Glucose-6-phosphate 1-dehydrogenase (Homo sapiens, UniProt P11413); experiment: inhibition of Homo sapiens G6PD, dose series – biochemical, fluorescence, selectivity assay for P. falciparum G6PD inhibitor project, dose response (AID 504792); format: functional
[36] = target: Heat shock protein HSP 90-alpha (Homo sapiens, UniProt P07900); format: functional, organism-based
Streptococcus = experiment: GAS UMAA2166 growth inhibition – luminescence, BacTiterGlo, counter-screen for streptokinase expression inhibitor project, dose response (AID 1915); format: functional, organism-based;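 note: potency for reduction of bacterial viability or growth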
Melanocortin receptor 4 = Melanocortin receptor 4 (Homo sapiens, UniProt P32245); experiment: inhibitors of MC4R cAMP signaling – cell-based, TR-FRET, biased antagonists, dose response (AID 602298); format: functional;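 note: antagonist potency against agonist-stimulated cAMP production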
Sequence of Melanocortin receptor 4 (P32245 whole entry): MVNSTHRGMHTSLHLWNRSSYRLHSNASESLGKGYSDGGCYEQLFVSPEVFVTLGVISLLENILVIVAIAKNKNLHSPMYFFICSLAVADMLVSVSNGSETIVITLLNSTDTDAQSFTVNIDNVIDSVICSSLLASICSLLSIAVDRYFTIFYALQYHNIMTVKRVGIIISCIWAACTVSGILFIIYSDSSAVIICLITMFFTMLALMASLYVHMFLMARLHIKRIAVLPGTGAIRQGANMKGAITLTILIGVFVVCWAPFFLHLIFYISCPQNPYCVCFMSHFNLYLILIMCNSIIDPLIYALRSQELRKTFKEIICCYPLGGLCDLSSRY

Streptokinase A = target: T1, Streptokinase A (Streptococcus pyogenes serotype M1, UniProt P10520); experiment: viability-normalized secreted streptokinase activity reduction – plasminogen activation absorbance, OD405, dose response (AID 1914); format: functional, Streptococcus pyogenes M1 GAS;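 note: secreted streptokinase activity via plasminogen activation per viability signal from cell pellet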
T1 sequence (P10520 whole entry): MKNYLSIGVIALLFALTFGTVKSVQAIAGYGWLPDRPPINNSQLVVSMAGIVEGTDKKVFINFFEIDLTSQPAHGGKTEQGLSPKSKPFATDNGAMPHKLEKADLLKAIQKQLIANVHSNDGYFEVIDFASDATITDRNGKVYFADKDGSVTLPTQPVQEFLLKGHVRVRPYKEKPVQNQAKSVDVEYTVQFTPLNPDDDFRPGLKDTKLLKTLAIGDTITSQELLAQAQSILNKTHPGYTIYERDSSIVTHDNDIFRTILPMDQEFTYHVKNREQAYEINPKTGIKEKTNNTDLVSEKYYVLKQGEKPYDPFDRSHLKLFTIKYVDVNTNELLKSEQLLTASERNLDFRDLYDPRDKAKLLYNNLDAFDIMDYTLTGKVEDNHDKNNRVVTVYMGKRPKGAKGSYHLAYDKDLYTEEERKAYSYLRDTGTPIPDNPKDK

[37] = system: Streptococcus sp. 'group A'; experiment: Streptococcus pyogenes SK(-)GAS viability under kanamycin – luminescence, BacTiterGlo, confirmation, counter-screen for streptokinase expression inhibitor project, dose response (AID 1900); format: functional, organism-based
[38] = NIH3T3 cell viability loss – ATP luminescence, mouse fibroblasts, counter-screen, dose response (AID 2010); format: functional, cell-based;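 note: cells exposed to compound for about 90 hours before reading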
Beta Lactamase = Beta Lactamase (Pseudomonas aeruginosa, UniProt Q932Y6); experiment: BLA reporter interference, concentration series – BLA reporter cells, FRET fluorescence, artefact control for TLR9-MyD88 binding inhibitor project, dose response (AID 588341); format: cell-based;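 note: cell based assay in CHO-K1 cells stably expressing beta-lactamase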
[39] = Trypanosoma cruzi growth suppression in host cells – NIH3T3 host cells, beta-gal luminescence, confirmation (AID 2044); format: functional, cell-based;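 note: intracellular parasites grown in NIH/3T3 mouse fibroblasts as host cells; luminescent beta-galactosidase reporter signal from transgenic T. cruzi replicating inside host cells; inhibitors lower the luminescence signal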

Q: Which IC50 [1] does the source give for `CC(=O)c1c(C)[nH]c(C(=O)CN(C)CC(=O)Nc2ccccc2Cl)c1C` here?
A: > 99 µM (inactive)

Q: And the IC50 [2]?
A: > 99 µM (inactive)

Q: With `CC(=O)c1ccccc1-c1ncnc2[nH]ccc12` as the compound, how does the Ki [3] read?
A: 15.8 µM (active)

Q: And the Ki [4]?
A: 50.1 µM (active)

Q: What about the Ki [5] of the same compound?
A: 50.1 µM (active)

Q: What about the Ki [6] of the same compound?
A: 50.1 µM (active)

Q: And the Ki [7]?
A: 39.8 µM (active)

Q: What about the Ki [8] of the same compound?
A: 39.8 µM (active)

Q: And the Ki [9]?
A: 20 µM (active)

Q: And the Ki [10]?
A: 39.8 µM (active)

Q: And the Ki [11]?
A: 31.6 µM (active)

Q: What about the Ki [12] of the same compound?
A: 63.1 µM (active)

Q: What about the Ki [13] of the same compound?
A: 39.8 µM (active)

Q: What about the Ki [14] of the same compound?
A: 63.1 µM (active)

Q: What about the Ki [15] of the same compound?
A: 50.1 µM (active)

Q: And the Ki [16]?
A: 20 µM (active)

Q: And the Ki [17]?
A: 63.1 µM (active)

Q: What about the Ki [18] of the same compound?
A: 63.1 µM (active)

Q: And the Ki [19]?
A: 39.8 µM (active)

Q: And the Ki [20]?
A: 25.1 µM (active)

Q: And the Ki [21]?
A: 50.1 µM (active)

Q: What about the Ki [22] of the same compound?
A: 63.1 µM (active)

Q: What about the Ki [23] of the same compound?
A: 12.6 µM (active)

Q: And the Ki [24]?
A: 63.1 µM (active)

Q: And the Ki [25]?
A: 31.6 µM (active)

Q: What about the Ki [26] of the same compound?
A: 63.1 µM (active)

Q: What about the Ki [27] of the same compound?
A: 100 µM (active)

Q: And the Ki [28]?
A: 15.8 µM (active)

Q: And the Ki (Aurora kinase A)?
A: > 63.1 µM (inactive)

Q: And the Ki [29]?
A: 50.1 µM (active)

Q: What about the Ki [30] of the same compound?
A: 20 µM (active)

Q: What about the Ki [31] of the same compound?
A: 39.8 µM (active)

Q: And the Ki [32]?
A: 2.51 µM (active)

Q: What about the Ki [33] of the same compound?
A: 63.1 µM (active)

Q: With `Cc1ccc(NC(=O)c2cc(N3C(=O)C=CC3=O)ccc2N2CCOCC2)cc1Cl` as the compound, how does the IC50 [34] read?
A: 28.6 µM (inactive)

Q: What about the IC50 (CHO) of the same compound?
A: 1.7 µM (active)

Q: What about the IC50 [35] of the same compound?
A: 48.1 µM (inactive)

Q: What about the AC50 [36] of the same compound?
A: < 0.195 µM (active)

Q: And the EC50 (Streptococcus)?
A: 13.4 µM (active)

Q: And the IC50 (Melanocortin receptor 4)?
A: 8.43 µM (active)

Q: What about the EC50 (Streptokinase A) of the same compound?
A: 6.68 µM (active)

Q: And the EC50 [37]?
A: 12 µM (active)

Q: And the EC50 [38]?
A: 6.37 µM (active)

Q: What about the IC50 (Beta Lactamase) of the same compound?
A: 9.48 µM (active)

Q: What about the EC50 [39] of the same compound?
A: 2.01 µM (active)
